Experimental data from ChEMBL document CHEMBL1148857, “In vitro and in vivo profile of 5-[(4'-trifluoromethyl-biphenyl-2-carbonyl)-amino]-1H-indole-2-carboxylic acid benzylmethyl carbamoylamide (dirlotapide), a novel potent MTP inhibitor for obesity” (Bioorg Med Chem Lett, 2007).
The source made the active and inactive calls. The rule behind the calls is not given here.

Experiments:
[1] = species on record: Homo sapiens; experiment: Inhibition of GABA receptor at 1 uM
[2] = Volume of distribution at steady state in rat at 0.3 mg/kg, iv; type: ADME, organism-based; design: dose 0.3 mg/kg, route intravenous; settings: in vivo, read-out: Vdss
[3] = species on record: Mus musculus; experiment: Inhibition of hepatic MTP in mouse assessed as reduction of triglyceride; type: functional
[4] = Half life in Beagle dog at 5 mg/kg, po; type: ADME, organism-based, Canis lupus familiaris; design: dose 5 mg/kg, route oral; settings: in vivo
[5] = species on record: Homo sapiens; experiment: Inhibition of muscle nicotinic receptor at 1 uM
[6] = target: D(4) dopamine receptor (Homo sapiens) (UniProt P21917); experiment: Inhibition of dopamine D4 receptor at 1 uM
[7] = target: Histamine H3 receptor (Homo sapiens) (UniProt Q9Y5N1); experiment: Inhibition of histamine H3 receptor at 1 uM
Histamine H3 receptor (Homo sapiens), sequence (Q9Y5N1 whole entry): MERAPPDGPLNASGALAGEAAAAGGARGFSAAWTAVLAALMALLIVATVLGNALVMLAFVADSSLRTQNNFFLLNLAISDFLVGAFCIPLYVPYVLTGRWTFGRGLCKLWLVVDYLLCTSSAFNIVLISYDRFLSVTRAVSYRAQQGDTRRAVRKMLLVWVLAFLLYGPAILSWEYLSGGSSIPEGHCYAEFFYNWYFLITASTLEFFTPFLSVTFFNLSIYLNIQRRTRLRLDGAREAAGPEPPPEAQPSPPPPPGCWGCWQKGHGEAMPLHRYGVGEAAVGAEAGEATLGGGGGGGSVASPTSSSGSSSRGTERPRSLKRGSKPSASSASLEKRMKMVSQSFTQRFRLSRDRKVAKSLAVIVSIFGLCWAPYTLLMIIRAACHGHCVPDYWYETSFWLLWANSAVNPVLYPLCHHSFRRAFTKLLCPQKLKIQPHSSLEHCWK

[8] = system: CYP3A4; experiment: Metabolic stability in human liver microsome at 0.5 uM in presence of 1 uM CYP3A4 inhibitor ketoconazole; type: ADME; settings: liver microsomes, with 1 uM ketoconazole (CYP3A4 inhibitor)
[9] = Intrinsic clearance in dog microsomes; type: ADME, Canis lupus familiaris, Liver, Microsome
[10] = target: 5-hydroxytryptamine receptor 7 (Homo sapiens) (UniProt P34969); experiment: Inhibition of 5HT7 receptor at 1 uM
5-hydroxytryptamine receptor 7 (Homo sapiens), sequence (P34969 whole entry): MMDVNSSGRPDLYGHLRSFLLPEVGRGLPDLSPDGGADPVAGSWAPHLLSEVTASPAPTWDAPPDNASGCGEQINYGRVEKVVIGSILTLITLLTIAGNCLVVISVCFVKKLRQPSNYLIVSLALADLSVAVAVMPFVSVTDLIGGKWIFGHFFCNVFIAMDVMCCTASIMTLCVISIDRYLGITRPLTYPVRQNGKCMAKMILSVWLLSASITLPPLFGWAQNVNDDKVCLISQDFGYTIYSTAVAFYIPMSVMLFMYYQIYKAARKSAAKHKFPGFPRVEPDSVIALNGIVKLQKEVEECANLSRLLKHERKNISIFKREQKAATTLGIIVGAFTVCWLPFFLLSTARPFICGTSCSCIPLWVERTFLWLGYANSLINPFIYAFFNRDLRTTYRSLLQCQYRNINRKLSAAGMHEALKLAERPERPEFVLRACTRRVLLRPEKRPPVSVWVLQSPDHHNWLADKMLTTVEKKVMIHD

[11] = system: CYP2C9; experiment: Metabolic stability in human liver microsome at 0.5 uM in presence of 5 uM CYP2C9 inhibitor sulfaphenazole; type: ADME; settings: liver microsomes, with 5 uM sulfaphenazole (CYP2C9 inhibitor)
[12] = AUC (0 to infinity) in male rat at 30 mg/kg, po; type: ADME, organism-based; design: time infinity, dose 30 mg/kg, route oral; settings: plasma
[13] = Cmax in rat at 3 mg/kg, po; type: ADME, organism-based; design: dose 3 mg/kg, route oral; settings: in vivo
[14] = Intrinsic clearance in rat microsomes; type: ADME, Microsome
[15] = Half life in Beagle dog at 0.5 mg/kg, iv; type: ADME, organism-based, Canis lupus familiaris; design: dose 0.5 mg/kg, route intravenous; settings: in vivo
[16] = target: Voltage-gated L-type calcium channel (Homo sapiens, UniProt Q13936+Q13698+Q01668+O60840); experiment: Inhibition of L-type calcium channel at 1 uM
[17] = AUC (0 to t) in monkey at 0.5 mg/kg, iv; type: ADME, organism-based, Macaca mulatta; design: dose 0.5 mg/kg, route intravenous; settings: rhesus monkey, plasma
[18] = target: Histamine H1 receptor (Homo sapiens) (UniProt P35367); experiment: Inhibition of histamine H1 receptor at 1 uM
Histamine H1 receptor (Homo sapiens), sequence (P35367 whole entry): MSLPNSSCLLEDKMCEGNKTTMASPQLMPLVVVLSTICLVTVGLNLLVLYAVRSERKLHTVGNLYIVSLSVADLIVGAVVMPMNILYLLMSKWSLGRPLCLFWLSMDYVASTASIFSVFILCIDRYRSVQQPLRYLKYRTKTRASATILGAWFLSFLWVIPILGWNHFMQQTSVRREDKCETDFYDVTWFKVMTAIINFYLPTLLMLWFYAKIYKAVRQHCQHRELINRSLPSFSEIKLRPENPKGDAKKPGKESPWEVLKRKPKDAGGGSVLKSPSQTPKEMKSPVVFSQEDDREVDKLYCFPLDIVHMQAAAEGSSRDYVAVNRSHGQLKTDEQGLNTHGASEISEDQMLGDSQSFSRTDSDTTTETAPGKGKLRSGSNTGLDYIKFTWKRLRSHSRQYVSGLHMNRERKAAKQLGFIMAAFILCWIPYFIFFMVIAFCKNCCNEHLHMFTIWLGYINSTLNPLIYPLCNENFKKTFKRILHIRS

[19] = target: D(2) dopamine receptor (Homo sapiens) (UniProt P14416); experiment: Inhibition of dopamine D2 receptor at 1 uM
D(2) dopamine receptor (Homo sapiens), sequence (P14416 whole entry): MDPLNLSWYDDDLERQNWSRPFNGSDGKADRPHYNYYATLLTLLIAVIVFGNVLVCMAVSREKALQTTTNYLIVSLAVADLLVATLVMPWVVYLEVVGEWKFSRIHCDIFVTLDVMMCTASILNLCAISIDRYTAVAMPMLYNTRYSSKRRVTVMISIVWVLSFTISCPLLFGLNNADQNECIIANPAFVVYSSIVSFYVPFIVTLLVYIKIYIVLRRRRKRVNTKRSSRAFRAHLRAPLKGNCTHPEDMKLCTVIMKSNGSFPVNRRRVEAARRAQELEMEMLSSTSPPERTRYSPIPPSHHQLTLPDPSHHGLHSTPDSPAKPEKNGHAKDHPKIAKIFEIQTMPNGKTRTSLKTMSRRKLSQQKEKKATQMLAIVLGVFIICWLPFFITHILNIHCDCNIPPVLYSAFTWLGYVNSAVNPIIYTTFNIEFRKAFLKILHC

[20] = AUC (0 to infinity) in monkey at 0.5 mg/kg, iv; type: ADME, organism-based, Macaca mulatta; design: time infinity, dose 0.5 mg/kg, route intravenous; settings: rhesus monkey, plasma
[21] = AUC (0 to t) in rat at 0.3 mg/kg, iv; type: ADME, organism-based; design: dose 0.3 mg/kg, route intravenous; settings: plasma
[22] = target: Type-2 angiotensin II receptor (Homo sapiens) (UniProt P50052); experiment: Inhibition of AT2 receptor at 1 uM
Type-2 angiotensin II receptor (Homo sapiens), sequence (P50052 whole entry): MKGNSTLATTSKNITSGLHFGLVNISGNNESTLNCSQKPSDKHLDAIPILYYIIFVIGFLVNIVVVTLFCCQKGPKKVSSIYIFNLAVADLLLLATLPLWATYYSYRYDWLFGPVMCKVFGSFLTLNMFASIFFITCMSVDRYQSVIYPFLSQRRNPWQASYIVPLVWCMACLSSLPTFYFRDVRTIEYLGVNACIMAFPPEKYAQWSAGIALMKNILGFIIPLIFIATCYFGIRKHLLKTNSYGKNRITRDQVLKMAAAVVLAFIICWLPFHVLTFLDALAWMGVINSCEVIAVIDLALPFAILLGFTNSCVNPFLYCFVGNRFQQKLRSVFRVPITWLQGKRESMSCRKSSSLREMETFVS

[23] = target: 5-hydroxytryptamine receptor 2A (Homo sapiens) (UniProt P28223); experiment: Inhibition of 5HT2A receptor at 1 uM
[24] = AUC (0 to infinity) in portal cannulated Beagle dog at 1 mg/kg, po; type: ADME, organism-based, Canis lupus familiaris; design: time infinity, dose 1 mg/kg, route oral; settings: plasma
[25] = Plasma clearance in rat at 1 mg/kg, iv; type: ADME, organism-based; design: dose 1 mg/kg, route intravenous
[26] = Volume of distribution at steady state in monkey at 0.5 mg/kg, iv; type: ADME, organism-based, Macaca mulatta; design: dose 0.5 mg/kg, route intravenous; settings: rhesus monkey, in vivo, read-out: Vdss
[27] = target: Muscarinic acetylcholine receptor M2 (Homo sapiens) (UniProt P08172); experiment: Inhibition of muscarinic M2 receptor at 1 uM
Muscarinic acetylcholine receptor M2 (Homo sapiens), sequence (P08172 whole entry): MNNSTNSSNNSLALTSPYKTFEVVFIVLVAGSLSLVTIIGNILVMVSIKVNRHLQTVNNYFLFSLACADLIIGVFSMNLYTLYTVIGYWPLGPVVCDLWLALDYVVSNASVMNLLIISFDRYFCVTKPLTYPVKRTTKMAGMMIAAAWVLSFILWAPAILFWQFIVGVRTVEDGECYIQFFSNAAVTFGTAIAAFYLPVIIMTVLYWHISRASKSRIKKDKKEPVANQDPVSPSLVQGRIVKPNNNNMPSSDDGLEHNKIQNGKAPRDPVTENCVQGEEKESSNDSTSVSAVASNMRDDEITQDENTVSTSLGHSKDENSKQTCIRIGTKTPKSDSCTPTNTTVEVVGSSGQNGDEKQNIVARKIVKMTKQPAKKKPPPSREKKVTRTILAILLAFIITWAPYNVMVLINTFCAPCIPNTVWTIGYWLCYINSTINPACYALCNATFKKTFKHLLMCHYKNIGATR

[28] = AUC (0 to infinity) in Beagle dog at 1 mg/kg, iv; type: ADME, organism-based, Canis lupus familiaris; design: time infinity, dose 1 mg/kg, route intravenous; settings: plasma
[29] = AUC (0 to infinity) in rat at 5 mg/kg, iv; type: ADME, organism-based; design: time infinity, dose 5 mg/kg, route intravenous; settings: plasma
[30] = species on record: Homo sapiens; experiment: Inhibition of AMPA receptor at 1 uM
[31] = Volume of distribution at steady state in rat at 1 mg/kg, iv; type: ADME, organism-based; design: dose 1 mg/kg, route intravenous; settings: in vivo, read-out: Vdss
[32] = target: Adrenergic receptor alpha-1 (Homo sapiens) (UniProt P35348+P25100+P35368); experiment: Inhibition of adrenergic a1 receptor at 1 uM; type: protein assay
[33] = species on record: Homo sapiens; experiment: Inhibition of central benzodiazepine receptor at 1 uM
[34] = target: B1 bradykinin receptor (Homo sapiens) (UniProt P46663); experiment: Inhibition of bradykinin B1 receptor at 1 uM
B1 bradykinin receptor (Homo sapiens), sequence (P46663 whole entry): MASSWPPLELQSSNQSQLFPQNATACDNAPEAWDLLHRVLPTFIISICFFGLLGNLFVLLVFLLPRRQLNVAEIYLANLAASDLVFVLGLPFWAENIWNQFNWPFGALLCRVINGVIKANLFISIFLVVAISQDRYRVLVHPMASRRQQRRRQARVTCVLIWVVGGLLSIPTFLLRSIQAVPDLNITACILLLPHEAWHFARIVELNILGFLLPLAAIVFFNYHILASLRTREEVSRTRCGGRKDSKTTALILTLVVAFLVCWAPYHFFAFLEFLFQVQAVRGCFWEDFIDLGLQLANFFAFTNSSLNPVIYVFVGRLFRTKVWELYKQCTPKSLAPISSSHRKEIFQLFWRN

[35] = Bioavailability in rat at 300 mg/kg, po; type: ADME, organism-based; settings: in vivo
[36] = system: Canis familiaris; experiment: Effect on body weight in obese Beagle dog assessed as weight loss at 0.39 mg/kg, po after 3 months relative to control; type: functional, Canis lupus familiaris
[37] = target: Mu-type opioid receptor (Homo sapiens) (UniProt P35372); experiment: Inhibition of mu opioid receptor at 1 uM
[38] = Tmax in rat at 30 mg/kg, po; type: ADME, organism-based; design: dose 30 mg/kg, route oral; settings: in vivo
[39] = target: Muscarinic acetylcholine receptor M1 (Homo sapiens) (UniProt P11229); experiment: Inhibition of muscarinic M1 receptor at 1 uM
[40] = AUC (0 to infinity) in Beagle dog at 5 mg/kg, po; type: ADME, organism-based, Canis lupus familiaris; design: time infinity, dose 5 mg/kg, route oral; settings: plasma
[41] = target: Cytochrome P450 2C19 (Homo sapiens, UniProt P33261); experiment: Inhibition of CYP2C19; type: ADME
[42] = Tmax in rat at 300 mg/kg, po; type: ADME, organism-based; design: dose 300 mg/kg, route oral; settings: in vivo
[43] = species on record: Mus musculus; experiment: Inhibition of intestinal MTP in mouse assessed as inhibition of intestinal fat absorption; type: functional
[44] = species on record: Homo sapiens; experiment: Inhibition of N-type calcium channel at 1 uM
[45] = Plasma clearance in rat at 0.3 mg/kg, iv; type: ADME, organism-based; design: dose 0.3 mg/kg, route intravenous
[46] = Half life in Beagle dog at 0.5 mg/kg, po; type: ADME, organism-based, Canis lupus familiaris; design: dose 0.5 mg/kg, route oral; settings: in vivo
[47] = target: B2 bradykinin receptor (Homo sapiens) (UniProt P30411); experiment: Inhibition of bradykinin B2 receptor at 1 uM
B2 bradykinin receptor (Homo sapiens), sequence (P30411 whole entry): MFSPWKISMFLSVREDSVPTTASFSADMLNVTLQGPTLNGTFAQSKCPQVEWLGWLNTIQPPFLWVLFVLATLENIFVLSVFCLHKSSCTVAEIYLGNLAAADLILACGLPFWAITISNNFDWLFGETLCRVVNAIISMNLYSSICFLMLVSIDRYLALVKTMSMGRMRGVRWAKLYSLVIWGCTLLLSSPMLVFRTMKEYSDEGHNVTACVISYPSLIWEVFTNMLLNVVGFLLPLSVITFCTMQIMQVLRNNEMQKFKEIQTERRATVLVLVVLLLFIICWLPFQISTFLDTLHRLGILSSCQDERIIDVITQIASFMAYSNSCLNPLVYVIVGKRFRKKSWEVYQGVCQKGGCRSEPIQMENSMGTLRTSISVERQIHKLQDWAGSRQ

[48] = target: Beta-2 adrenergic receptor (Homo sapiens) (UniProt P07550); experiment: Inhibition of adrenergic b2 receptor at 1 uM
Beta-2 adrenergic receptor (Homo sapiens), sequence (P07550 whole entry, looked up): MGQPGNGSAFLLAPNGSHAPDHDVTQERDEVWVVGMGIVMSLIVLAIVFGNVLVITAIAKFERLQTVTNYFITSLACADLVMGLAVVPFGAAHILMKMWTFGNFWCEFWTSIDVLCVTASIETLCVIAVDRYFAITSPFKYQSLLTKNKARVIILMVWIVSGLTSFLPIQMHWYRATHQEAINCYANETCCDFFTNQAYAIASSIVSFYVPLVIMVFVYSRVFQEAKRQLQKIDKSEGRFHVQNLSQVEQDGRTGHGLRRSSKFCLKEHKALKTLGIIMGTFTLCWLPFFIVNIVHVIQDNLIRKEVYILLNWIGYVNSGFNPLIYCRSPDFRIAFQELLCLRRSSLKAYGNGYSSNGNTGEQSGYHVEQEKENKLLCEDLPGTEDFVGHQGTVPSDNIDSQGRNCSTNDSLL

[49] = AUC (0 to t) in rat at 1 mg/kg, iv; type: ADME, organism-based; design: dose 1 mg/kg, route intravenous; settings: plasma
[50] = Half life in rat at 1 mg/kg, iv; type: ADME, organism-based; design: dose 1 mg/kg, route intravenous; settings: in vivo
[51] = AUC (0 to infinity) in portal cannulated Beagle dog at 1 mg/kg, iv; type: ADME, organism-based, Canis lupus familiaris; design: time infinity, dose 1 mg/kg, route intravenous; settings: plasma
[52] = species on record: Homo sapiens; experiment: Inhibition of tachykinin receptor at 1 uM
[53] = AUC (0 to infinity) in Beagle dog at 0.5 mg/kg, iv; type: ADME, organism-based, Canis lupus familiaris; design: time infinity, dose 0.5 mg/kg, route intravenous; settings: plasma
[54] = species on record: Homo sapiens; experiment: Inhibition of neuronal nicotinic receptor at 1 uM
[55] = Half life in rat at 3 mg/kg, po; type: ADME, organism-based; design: dose 3 mg/kg, route oral; settings: in vivo
[56] = target: Adenosine receptor A3 (Homo sapiens) (UniProt P0DMS8); experiment: Inhibition of adenosine A3 receptor at 1 uM
Adenosine receptor A3 (Homo sapiens), sequence (P0DMS8 whole entry): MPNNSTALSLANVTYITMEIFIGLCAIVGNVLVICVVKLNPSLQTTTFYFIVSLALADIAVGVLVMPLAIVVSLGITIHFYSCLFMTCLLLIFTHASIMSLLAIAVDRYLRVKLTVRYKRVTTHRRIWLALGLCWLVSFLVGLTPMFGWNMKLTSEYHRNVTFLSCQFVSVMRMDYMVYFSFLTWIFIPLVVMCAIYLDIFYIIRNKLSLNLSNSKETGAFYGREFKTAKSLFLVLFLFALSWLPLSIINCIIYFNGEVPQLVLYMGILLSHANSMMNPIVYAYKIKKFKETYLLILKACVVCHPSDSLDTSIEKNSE

[57] = target: D(1A) dopamine receptor (Homo sapiens) (UniProt P21728); experiment: Inhibition of dopamine D1 receptor at 1 uM
[58] = Plasma clearance in Beagle dog at 1 mg/kg, iv; type: ADME, organism-based, Canis lupus familiaris; design: dose 1 mg/kg, route intravenous
[59] = Volume of distribution at steady state in Beagle dog at 1 mg/kg, iv; type: ADME, organism-based, Canis lupus familiaris; design: dose 1 mg/kg, route intravenous; settings: in vivo, read-out: Vdss
[60] = system: Plasma; experiment: Percentage unbound ligand in dog blood at 0.2 uM; type: ADME, cell-free, Canis lupus familiaris
[61] = target: Cytochrome P450 2C9 (Homo sapiens, UniProt P11712); experiment: Inhibition of CYP2C9; type: ADME
Cytochrome P450 2C9, sequence (P11712 whole entry): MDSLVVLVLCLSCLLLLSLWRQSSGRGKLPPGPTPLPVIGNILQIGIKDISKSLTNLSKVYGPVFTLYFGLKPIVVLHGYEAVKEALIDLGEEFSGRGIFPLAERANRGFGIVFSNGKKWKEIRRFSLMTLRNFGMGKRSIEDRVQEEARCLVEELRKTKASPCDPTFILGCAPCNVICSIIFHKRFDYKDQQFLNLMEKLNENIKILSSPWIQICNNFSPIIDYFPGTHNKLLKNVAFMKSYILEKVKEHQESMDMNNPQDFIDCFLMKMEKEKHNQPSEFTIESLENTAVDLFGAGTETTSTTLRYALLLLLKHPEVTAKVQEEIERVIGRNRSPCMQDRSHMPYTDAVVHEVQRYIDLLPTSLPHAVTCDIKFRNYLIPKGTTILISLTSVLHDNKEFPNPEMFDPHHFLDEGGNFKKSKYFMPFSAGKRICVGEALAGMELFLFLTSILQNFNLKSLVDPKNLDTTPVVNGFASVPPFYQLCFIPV

- Activity [1]: inactive
- Vd [2]: 11 L/kg
- half-life [4]: 5.9 h
- Activity [5]: inactive
- Activity [6]: inactive
- Activity [7]: inactive
- half-life at 0.5 µM [8]: 6.15 h
- CLint scaled [9]: 1090 mL/min/kg
- Activity [10]: inactive
- half-life at 0.5 µM [11]: 0.783 h
- AUC(0-inf) [12]: 379 ng·h/mL
- Cmax [13]: 4.7 ng/mL
- CLint scaled [14]: 645 mL/min/kg
- half-life [15]: 5 h
- Activity [16]: Not Active
- AUC(0-t) [17]: 684 ng·h/mL
- Activity [18]: inactive
- Activity [19]: inactive
- AUC(0-inf) [20]: 703 ng·h/mL
- AUC(0-t) [21]: 51 ng·h/mL
- Activity [22]: inactive
- Activity [23]: inactive
- AUC(0-inf) [24]: 289 ng·h/mL
- clearance [25]: 37 mL/min/kg
- Vd [26]: 2.2 L/kg
- Activity [27]: inactive
- AUC(0-inf) [28]: 3610 ng·h/mL
- AUC(0-inf) [29]: 5890 ng·h/mL
- Activity [30]: inactive
- Vd [31]: 8 L/kg
- Activity [32]: inactive
- Activity [33]: inactive
- Activity [34]: inactive
- bioavailability [35]: 1%
- Activity [37]: inactive
- Tmax [38]: 2.8 h
- Activity [39]: inactive
- AUC(0-inf) [40]: 1930 ng·h/mL
- IC50 [41]: > 30 µM
- Tmax [42]: 6 h
- Activity [44]: inactive
- clearance [45]: 92 mL/min/kg
- half-life [46]: 14.1 h
- Activity [47]: inactive
- Activity [48]: inactive
- AUC(0-t) [49]: 485 ng·h/mL
- half-life [50]: 5.8 h
- AUC(0-inf) [51]: 2820 ng·h/mL
- Activity [52]: inactive
- AUC(0-inf) [53]: 1550 ng·h/mL
- Activity [54]: inactive
- half-life [55]: 6.3 h
- Activity [56]: inactive
- Activity [57]: inactive
- clearance [58]: 4.7 mL/min/kg
- Vd [59]: 1 L/kg
- Fu [60]: 0.0088%
- IC50 [61]: > 30 µM
Compound: CN(Cc1ccccc1)C(=O)[C@@H](NC(=O)c1cc2cc(NC(=O)c3ccccc3-c3ccc(C(F)(F)F)cc3)ccc2n1C)c1ccccc1 [DIRLOTAPIDE]
- ED25 [3]: 6 mg/kg
- Activity [36]: 18.8%
- ED25 [43]: 0.16 mg/kg
